From patent publication US10316017B2, “COT modulators and methods of use thereof” (Gilead Sciences, Inc., priority 2015, dated 2019)
Like-named read-outs stand apart in the source and are kept apart here. Each block holds one compound with its values, some of them ahead of it.

Key:
[1] = target: T1, human Cot catalytic domain (30-397 amino acids) (Homo sapiens, UniProt P41279); assay: High Throughput Cot Biochemical Assay (KinEASE TR-FRET); settings: Cot KinEASE TR-FRET (HTRF) biochemical assay, 400 μM ATP; read-out: IC50 HTRF
T1 construct: Purified recombinant human Cot catalytic domain (30-397 amino acids) was purchased from Cama Biosciences; purchased Cama Biosciences (so in the source)
Outline: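 Phosphorylation of 1 μM XL665-STK3 peptide by 5 nM Cot catalytic domain was measured by time-resolved FRET using a europium […] antibody. ATP was 400 μM; buffer was 10 mM MOPS pH 7.0 with Mg2+ and DTT.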

[2] = tested on: TNFα production in LPS-stimulated human monocytes; assay: Cot Monocyte TNFα Cell Based Assay; settings: Homo sapiens, Monocyte, read-out: EC50 TNF
Outline: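 Percent-of-control values derive from TR-FRET ratios of TNFα in spun-down media, referenced to unstimulated and LPS-stimulated wells. Exposure: 1 h compound preincubation, then 50 pg/ml LPS for 4 h, both at 37 °C, with 0.5% final DMSO.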

[3] = TNFα in LPS-stimulated human monocytes

T1 sequence (P41279 30-397): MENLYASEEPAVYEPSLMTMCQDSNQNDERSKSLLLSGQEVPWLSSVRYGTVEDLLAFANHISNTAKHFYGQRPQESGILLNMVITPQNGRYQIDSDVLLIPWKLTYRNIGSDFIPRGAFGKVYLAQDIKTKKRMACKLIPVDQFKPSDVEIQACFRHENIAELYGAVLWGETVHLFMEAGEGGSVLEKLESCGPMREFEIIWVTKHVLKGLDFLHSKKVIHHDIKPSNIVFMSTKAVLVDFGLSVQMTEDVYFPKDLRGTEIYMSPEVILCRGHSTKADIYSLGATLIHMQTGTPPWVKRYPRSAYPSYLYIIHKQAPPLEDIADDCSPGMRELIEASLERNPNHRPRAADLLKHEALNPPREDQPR

Structure (SMILES): [2H][C@](Nc1cc(Cl)c2ncc(C#N)c(NC3CC3)c2c1)(c1ccc(F)cc1)c1cn(C2CC2)nn1 [Example 220, (S)-8-chloro-6-(((1-cyclopropyl-1H-1,2,3-triazol-4-yl)(4-fluorophenyl)methyl-d)amino)-4-(cyclopropylamino)quinoline-3-carbonitrile]
IC50 [1]: 296 nM | EC50 [2, 3]: 1620 nM

Structure (SMILES): [2H][C@](Nc1cc(C)c2ncc(C#N)c(N[C@H](CC)c3ccccc3)c2c1)(c1ccc(F)cc1)c1cn(C2CC2)nn1 [Example 221, 6-(((S)-(1-cyclopropyl-1H-1,2,3-triazol-4-yl)(4-fluorophenyl)methyl-d)amino)-8-methyl-4-(((R)-1-phenylpropyl)amino)quinoline-3-carbonitrile]
IC50 [1]: 244 nM | EC50 [2, 3]: 2520 nM

Structure (SMILES): [2H][C@](Nc1cc(Cl)c2ncc(C#N)c(NN(CC)c3ccccc3)c2c1)(c1ccc(F)cc1)c1cn(C2CC2)nn1 [Example 222, (S)-8-chloro-6-(((1-cyclopropyl-1H-1,2,3-triazol-4-yl)(4-fluorophenyl)methyl-d)amino)-4-(2-ethyl-2-phenylhydrazinyl)quinoline-3-carbonitrile]
IC50 [1]: 8200 nM | EC50 [2, 3]: > 10000 nM

Structure (SMILES): [2H][C@@](Nc1cc(Cl)c2ncc(C#N)c(N[C@@H]3CCCC[C@@H]3NC(=O)OC(C)(C)C)c2c1)(c1ccc(F)cc1)c1cn(C2CC2)nn1 [Example 229, tert-butyl ((1S,2R)-2-((8-chloro-3-cyano-6-(((S)-(1-cyclopropyl-1H-1,2,3-triazo1-4-yl)(4-fluorophenyl)methyl-d)amino)quinolin-4-yl)amino)cyclohexyl) carbamate]
IC50 [1]: 2610 nM | EC50 [2, 3]: > 10000 nM

Structure (SMILES): [2H][C@](Nc1cc(Cl)c2ncc(C#N)c(N[C@H]3CCCC[C@H]3N)c2c1)(c1ccc(F)cc1)c1cn(C2CC2)nn1 [Example 230, 4-(((1S,2R)-2-aminocyclohexyl)amino)-8-chloro-6-(((S)-(1-cyclopropyl-1H-1,2,3-triazol-4-yl)(4-fluorophenyl)methyl-d)amino)quinoline-3-carbonitrile]
IC50 [1]: 337 nM | EC50 [2, 3]: > 10000 nM

Structure (SMILES): [2H][C@](Nc1cc(Cl)c2ncc(C#N)c(N[C@H]3CCCC[C@@H]3CO)c2c1)(c1ccc(F)cc1)c1cn(C2CC2)nn1 [Example 234, 8-chloro-6-(((S)-(1-cyclopropyl-1H-1,2,3-triazol-4-yl)(4-fluorophenyl)methyl-d)amino)-4-(((1S,2S)-2-(hydroxymethyl)cyclohexyl)amino) quinoline-3-carbonitrile]
IC50 [1]: 523 nM | EC50 [2, 3]: 5630 nM

Structure (SMILES): [2H][C@](Nc1cc(Cl)c2ncc(C#N)c(N[C@@H]3CCCC[C@H]3CO)c2c1)(c1ccc(F)cc1)c1cn(C2CC2)nn1 [Example 235, 8-chloro-6-(((S)-(1-cyclopropyl-1H-1,2,3-triazol-4-yl)(4-fluorophenyl)methyl-d)amino)-4-(((1R,2R)-2-(hydroxymethyl)cyclohexyl)amino) quinoline-3-carbonitrile]
IC50 [1]: 605 nM | EC50 [2, 3]: ≥ 10000 nM

Structure (SMILES): [2H][C@](Nc1cc(Cl)c2ncc(C#N)c(N[C@H]3CCCC[C@@H]3O)c2c1)(c1ccc(F)cc1)c1cn(C2CC2)nn1 [Example 236, 8-chloro-6-(((S)-(1-cyclopropyl-1H-1,2,3-triazol-4-yl)(4-fluorophenyl)methyl-d)amino)-4-(((1S,2S)-2-hydroxycyclohexyl)amino) quinoline-3-carbonitrile]
IC50 [1]: 294 nM | EC50 [2, 3]: 6630 nM

Structure (SMILES): [2H][C@](Nc1cc(Cl)c2ncc(C#N)c(NCC[Si](C)(C)C)c2c1)(c1ccc(F)cc1)c1cn(C2CC2)nn1 [Example 237, (S)-8-chloro-6-(((1-cyclopropyl-1H-1,2,3-triazol-4-yl)(4-fluorophenyl)methyl-d)amino)-4-((2-(trimethylsilyl)ethyl)amino) quinoline-3-carbonitrile]
IC50 [1]: 231 nM | EC50 [2]: 5120 nM

Now those with a lower IC50 [1], led by results:

IC50 [1]: 5 nM | EC50 [2, 3]: 157 nM
Structure (SMILES): [2H][C@](Nc1cc(Cl)c2ncc(C#N)c(NCC(C)(C)CC)c2c1)(c1ccc(F)cc1)c1cn(C2CC2)nn1 [Example 223, (S)-8-chloro-6-(((1-cyclopropyl-1H-1,2,3-triazol-4-yl)(4-fluorophenyl)methyl-d)amino)-4-((2,2-dimethylbutyl)amino)quinoline-3-carbonitrile]

IC50 [1]: 28 nM | EC50 [2, 3]: 397 nM
Structure (SMILES): [2H][C@](Nc1cc(C2CC2)c2ncc(C#N)c(N[C@H](CC)c3ccccc3)c2c1)(c1ccc(F)cc1)c1cn(C2CC2)nn1 [Example 224, 8-cyclopropyl-6-(((S)-(1-cyclopropyl-1H-1,2,3-triazol-4-yl)(4-fluorophenyl)methyl-d)amino)-4-(((R)-1-phenylpropyl)amino)quinoline-3-carbonitrile]

IC50 [1]: 38 nM | EC50 [2, 3]: 800 nM
Structure (SMILES): [2H][C@](Nc1cc(Cl)c2ncc(C#N)c(NCC(C)(C)COC)c2c1)(c1ccc(F)cc1)c1cn(C2CC2)nn1 [Example 225, (S)-8-chloro-6-(((1-cyclopropyl-1H-1,2,3-triazol-4-yl)(4-fluorophenyl)methyl-d)amino)-4-((3-methoxy-2,2-dimethylpropyl)amino) quinoline-3-carbonitrile]

IC50 [1]: 16 nM | EC50 [2, 3]: 606 nM
Structure (SMILES): [2H][C@](Nc1cc(Cl)c2ncc(C#N)c(NC[C@@H](C)c3ccccc3)c2c1)(c1ccc(F)cc1)c1cn(C2CC2)nn1 [Example 226, 8-chloro-6-(((S)-(1-cyclopropyl-1H-1,2,3-triazol-4-yl)(4-fluorophenyl)methyl-d)amino)-4-(((S)-2-phenylpropyl)amino) quinoline-3-carbonitrile]

IC50 [1]: 11 nM | EC50 [2, 3]: 426 nM
Structure (SMILES): [2H][C@](Nc1cc(Cl)c2ncc(C#N)c(N[C@H](C)c3ccccc3)c2c1)(c1ccc(F)cc1)c1cn(C2CC2)nn1 [Example 227, 8-chloro-6-(((S)-(1-cyclopropyl-1H-1,2,3-triazol-4-yl)(4-fluorophenyl)methyl-d)amino)-4-(((R)-1-phenylethyl)amino) quinoline-3-carbonitrile]

IC50 [1]: 215 nM | EC50 [2, 3]: 2440 nM
Structure (SMILES): [2H][C@](Nc1cc(C2CC2)c2ncc(C#N)c(NCC(C)(C)C)c2c1)(c1ccc(F)cc1)c1cn(C2CC2)nn1 [Example 232, (S)-8-cyclopropyl-6-(((1-cyclopropyl-1H-1,2,3-triazol-4-yl)(4-fluorophenyl)methyl-d)amino)-4-(neopentylamino)quinoline-3-carbonitrile]

IC50 [1]: 5 nM | EC50 [2, 3]: 259 nM
Structure (SMILES): [2H][C@](Nc1cc(Cl)c2ncc(C#N)c(NCC(C)(C)C)c2c1)(c1cccc(C#N)c1)c1cn(C(C)(C)C)nn1 [Example 233, (S)-6-(((1-(tert-butyl)-1H-1,2,3-triazol-4-yl)(3-cyanophenyl)methyl-d)amino)-8-chloro-4-(neopentylamino)quinoline-3-carbonitrile]

IC50 [1]: 12 nM | EC50 [2, 3]: 162 nM
Structure (SMILES): [2H][C@@](Nc1cc(Cl)c2ncc(C#N)c(NCC(C)(C)C)c2c1)(c1cn(C2CC2)nn1)c1ccccc1C(F)F [Example 238, (S)-8-chloro-6-(((1-cyclopropyl-1H-1,2,3-triazol-4-yl)(2-(difluoromethyl)phenyl)methyl-d)amino)-4-(neopentylamino)quinoline-3-carbonitrile]

IC50 [1]: 2 nM | EC50 [2, 3]: 55 nM
Structure (SMILES): [2H]C([2H])(Nc1c(C#N)cnc2c(Cl)cc(N[C@@]([2H])(c3cccc(C#N)c3)c3cn(C4CC4)nn3)cc12)C(C)(C)C [Example 239, (S)-8-chloro-6-(((3-cyanophenyl)(1-cyclopropyl-1H-1,2,3-triazol-4-yl)methyl-d)amino)-4-((2,2-dimethylpropyl-1,1-d2)amino)quinoline-3-carbonitrile]
